# Where two headings read alike, the source gives them in different places.
# Assays:
# [1] = target: panel of 255 wild-type kinases (Homo sapiens, UniProt O75582); assay: Kinase panel profiling at 1 µmol/L (MSA or IMAP), percentage inhibition; format: biochemical; settings: MSK1; 1 µmol/L single concentration; read-out: %-inhibition, MSK1
# [2] = target: panel of 255 wild-type kinases (Homo sapiens, UniProt Q00526); assay: as above; format: biochemical; settings: CDK3/CycE1 kinase assay; 1 µmol/L single concentration; read-out: %-inhibition CDK3/CycE1
# [3] = target: panel of 255 wild-type kinases (Homo sapiens, UniProt P22607); assay: as above; format: biochemical; settings: kinase FGFR3; 1 µmol/L single concentration; read-out: %-inhibition at 1 µmol/L, FGFR3
# [4] = target: panel of 255 wild-type kinases (Homo sapiens, UniProt Q9HBH9); assay: as above; format: biochemical; settings: MNK2; 1 µmol/L single concentration; read-out: %-inhibition, MNK2
# [5] = target: panel of 255 wild-type kinases (Homo sapiens, UniProt Q13177); assay: as above; format: biochemical; settings: PAK2; 1 µmol/L single concentration; read-out: %-inhibition, PAK2
# [6] = target: panel of 255 wild-type kinases (Homo sapiens, UniProt P50613); assay: as above; format: biochemical; settings: read-out: %-inhibition CDK7/CycH/MAT1
# [7] = target: panel of 255 wild-type kinases (Homo sapiens, UniProt P45983); assay: as above; format: biochemical; settings: kinase JNK1; 1 µmol/L single concentration; read-out: %-inhibition at 1 µmol/L, JNK1
# [8] = target: panel of 255 wild-type kinases (Homo sapiens, UniProt P49760); assay: as above; format: biochemical; settings: kinase CLK2; 1 µmol/L single concentration; read-out: %-inhibition at 1 µmol/L, CLK2
# [9] = target: panel of 255 wild-type kinases (Homo sapiens, UniProt Q96RG2); assay: as above; format: biochemical; settings: PASK; 1 µmol/L single concentration; read-out: %-inhibition, PASK
# [10] = tested on: AP-1060 (ETV6-NTRK3); assay: Cell viability assay; settings: read-out: IC50 in cell proliferation assay
# [11] = tested on: 134 cancer cell lines; assay: Cell viability assay (ATPlite, 72 hours), IC50 on cancer cell line panel
structure (smiles),measurement,setting,value
CCc1nc(C(N)=O)c(Nc2ccc(N3CCC(N4CCN(C)CC4)CC3)c(OC)c2)nc1NC1CCOCC1 [gilteritinib],inhibition at 1 µM,[1],25%
same,inhibition at 1 µM,[2],7%
same,inhibition at 1 µM,[3],76%
same,inhibition at 1 µM,[4],89%
same,inhibition at 1 µM,[5],10%
same,inhibition at 1 µM,[6],31%
same,inhibition at 1 µM,[7],29%
same,inhibition at 1 µM,[8],39%
same,inhibition at 1 µM,[9],2.54%
same,IC50,[10],0.417 µM
same,IC50,"[11]; HEC-6, read-out: IC50 in cell proliferation assay, HEC-6 cell line (EGFR p.A289V)",1.43 µM
same,IC50,"[11]; Homo sapiens, 769-P, read-out: IC50 in cell proliferation assay, cell line 769-P",1.15 µM
same,IC50,"[11]; Homo sapiens, 786-0, read-out: IC50 in cell proliferation assay, cell line 786-O",0.947 µM
same,IC50,"[11]; Homo sapiens, A 172, read-out: IC50 in cell proliferation assay, cell line A-172",1.63 µM
same,IC50,"[11]; Homo sapiens, A204, read-out: IC50 in cell proliferation assay, cell line A-204",0.392 µM
same,IC50,"[11]; Homo sapiens, A498, read-out: IC50 in cell proliferation assay, cell line A-498",0.552 µM
same,IC50,"[11]; Homo sapiens, A549, read-out: IC50 in cell proliferation assay, cell line A-549",0.63 µM
same,IC50,"[11]; Homo sapiens, A704, read-out: IC50 in cell proliferation assay, cell line A-704",0.962 µM
same,IC50,"[11]; Homo sapiens, A-375, read-out: IC50 in cell proliferation assay, cell line A-375 (BRAF p.V600E)",0.4 µM
same,IC50,"[11]; Homo sapiens, A-427, read-out: IC50 in cell proliferation assay, cell line A-427",0.248 µM
same,IC50,"[11]; Homo sapiens, ACHN, read-out: IC50 in cell proliferation assay, cell line ACHN",0.294 µM
same,IC50,"[11]; Homo sapiens, AN3-CA, read-out: IC50 in cell proliferation assay, cell line AN3-CA (FGFR2 p.N549K)",1.22 µM
same,IC50,"[11]; Homo sapiens, ASPC1, read-out: IC50 in cell proliferation assay, cell line AsPC-1",0.545 µM
same,IC50,"[11]; Homo sapiens, AU565, read-out: IC50 in cell proliferation assay, cell line AU565 (ERBB2 amplification)",1.31 µM
same,IC50,"[11]; Homo sapiens, BT-20, read-out: IC50 in cell proliferation assay, cell line BT-20",4.21 µM
same,IC50,"[11]; Homo sapiens, BT-474, read-out: IC50 in cell proliferation assay, cell line BT-474 (ERBB2 amplification)",13.9 µM
same,IC50,"[11]; Homo sapiens, BT-549, read-out: IC50 in cell proliferation assay, cell line BT-549",0.469 µM
same,IC50,"[11]; Homo sapiens, BXPC-3, read-out: IC50 in cell proliferation assay, cell line BxPC-3",0.409 µM
same,IC50,"[11]; Homo sapiens, C-33-A, read-out: IC50 in cell proliferation assay, cell line C-33 A",0.344 µM
same,IC50,"[11]; Homo sapiens, CAL-27, read-out: IC50 in cell proliferation assay, cell line CAL-27",0.366 µM
same,IC50,"[11]; Homo sapiens, CCF-STTG1, read-out: IC50 in cell proliferation assay, cell line CCF-STTG1",4.06 µM
same,IC50,"[11]; Homo sapiens, CCRF-CEM, read-out: IC50 in cell proliferation assay, cell line CCRF-CEM",1.69 µM
same,IC50,"[11]; Homo sapiens, COLO 205, read-out: IC50 in cell proliferation assay, cell line COLO 205 (BRAF p.V600E)",1.06 µM
same,IC50,"[11]; Homo sapiens, COLO-829, read-out: IC50 in cell proliferation assay, cell line COLO 829 (BRAF p.V600E)",1.22 µM
same,IC50,"[11]; Homo sapiens, DLD-1, read-out: IC50 in cell proliferation assay, cell line DLD-1",0.746 µM
same,IC50,"[11]; Homo sapiens, DU-4475, read-out: IC50 in cell proliferation assay, cell line DU4475 (BRAF p.V600E)",1.44 µM
same,IC50,"[11]; Homo sapiens, Daoy, read-out: IC50 in cell proliferation assay, cell line Daoy",3.21 µM
same,IC50,"[11]; Homo sapiens, DoTc2-4510, read-out: IC50 in cell proliferation assay, cell line DoTc2 4510",0.318 µM
same,IC50,"[11]; Homo sapiens, EOL1, read-out: IC50 in cell proliferation assay, cell line EoL-1 (FIP1L1-PDGFRA)",0.033 µM
same,IC50,"[11]; Homo sapiens, FaDu, read-out: IC50 in cell proliferation assay, cell line FaDu",0.459 µM
same,IC50,"[11]; Homo sapiens, G-361, read-out: IC50 in cell proliferation assay, cell line G-361 (BRAF p.V600E)",0.328 µM
same,IC50,"[11]; Homo sapiens, HCC827, read-out: IC50 in cell proliferation assay, cell line HCC827 (EGFR exon19del)",0.223 µM
same,IC50,"[11]; Homo sapiens, HCC4006, read-out: IC50 in cell proliferation assay, cell line HCC4006 (EGFR exon19del)",0.54 µM
same,IC50,"[11]; Homo sapiens, HCT-15, read-out: IC50 in cell proliferation assay, cell line HCT 15",0.829 µM
same,IC50,"[11]; Homo sapiens, HCT-116, read-out: IC50 in cell proliferation assay, cell line HCT 116",0.418 µM
same,IC50,"[11]; Homo sapiens, HEC-1, read-out: IC50 in cell proliferation assay, HEC-1 cell line",0.462 µM
same,IC50,"[11]; Homo sapiens, HEC-1B, read-out: IC50 in cell proliferation assay, HEC-1-B cell line (EGFR p.A864V)",0.27 µM
same,IC50,"[11]; Homo sapiens, HL-60, read-out: IC50 in cell proliferation assay, HL-60 cell line",0.438 µM
same,IC50,"[11]; Homo sapiens, HT, read-out: IC50 in cell proliferation assay, HT cell line",3.41 µM
same,IC50,"[11]; Homo sapiens, HT-1080, read-out: IC50 in cell proliferation assay, HT-1080 cell line",0.202 µM
same,IC50,"[11]; Homo sapiens, Hs746T, read-out: IC50 in cell proliferation assay, Hs 746.T cell line (MET exon14skip + amplification)",0.512 µM
same,IC50,"[11]; Homo sapiens, Hs-578T, read-out: IC50 in cell proliferation assay, Hs 578T cell line",1.19 µM
same,IC50,"[11]; Homo sapiens, HuTu80, read-out: IC50 in cell proliferation assay, HuTu 80 cell line",0.509 µM
same,IC50,"[11]; Homo sapiens, J82, read-out: IC50 in cell proliferation assay, J82 cell line",0.372 µM
same,IC50,"[11]; Homo sapiens, Jurkat E6.1, read-out: IC50 in cell proliferation assay, Jurkat E6.1 cell line",0.749 µM
same,IC50,"[11]; Homo sapiens, K562, read-out: IC50 in cell proliferation assay, K-562 cell line",1.54 µM
same,IC50,"[11]; Homo sapiens, KATO III, read-out: IC50 in cell proliferation assay, KATO III cell line (FGFR2 amplification)",0.718 µM
same,IC50,"[11]; Homo sapiens, KG-1, read-out: IC50 in cell proliferation assay, KG-1 cell line (FGFR1OP2-FGFR1)",0.392 µM
same,IC50,"[11]; Homo sapiens, KLE, read-out: IC50 in cell proliferation assay, KLE cell line",0.317 µM
same,IC50,"[11]; Homo sapiens, KMS-11, read-out: IC50 in cell proliferation assay, KMS-11 cell line (FGFR3 p.Y373C)",0.912 µM
same,IC50,"[11]; Homo sapiens, KU812, read-out: IC50 in cell proliferation assay, Ku812 cell line",1.51 µM
same,IC50,"[11]; Homo sapiens, Kasumi 1, read-out: IC50 in cell proliferation assay, Kasumi-1 cell line (KIT p.N822K)",0.219 µM
same,IC50,"[11]; Homo sapiens, LC-2-ad, read-out: IC50 in cell proliferation assay, LC-2/ad cell line (CCDC6-RET)",0.158 µM
same,IC50,"[11]; Homo sapiens, LNCaP-Clone-FGC, read-out: IC50 in cell proliferation assay, LNCaP clone FGC cell line",6.82 µM
same,IC50,"[11]; Homo sapiens, LS174T, read-out: IC50 in cell proliferation assay, LS174T cell line",0.652 µM
same,IC50,"[11]; Homo sapiens, LS-411N, read-out: IC50 in cell proliferation assay, LS411N cell line (BRAF p.V600E)",1.15 µM
same,IC50,"[11]; Homo sapiens, LoVo, read-out: IC50 in cell proliferation assay, LoVo cell line",0.413 µM
same,IC50,"[11]; Homo sapiens, MCF7, read-out: IC50 in cell proliferation assay, MCF-7 cell line",0.514 µM
same,IC50,"[11]; Homo sapiens, MDA-MB-231, read-out: IC50 in cell proliferation assay, MDA-MB-231 cell line",1.5 µM
same,IC50,"[11]; Homo sapiens, MDA-MB-453, read-out: IC50 in cell proliferation assay, MDA-MB-453 cell line",8.82 µM
same,IC50,"[11]; Homo sapiens, MDA-MB-468, read-out: IC50 in cell proliferation assay, MDA-MB-468 cell line",4.89 µM

# Reference: article PMC9516332 (Frontiers in Oncology, 2022)
